Measurements from publication PMC8177813 (Journal of pharmaceutical sciences, 2020).
Structures can show the parent of a compound that is named as a salt. Where two headings read alike, the source gives them in different places. Marks after values point to notes of the source that are not given here.

Legend:
[1] = molecular target: T1, human OAT3 (Homo sapiens, UniProt Q8TCC7); assay: Inhibition of OAT3-mediated 6-carboxyfluorescein
T1 sequence (Q8TCC7 1-542): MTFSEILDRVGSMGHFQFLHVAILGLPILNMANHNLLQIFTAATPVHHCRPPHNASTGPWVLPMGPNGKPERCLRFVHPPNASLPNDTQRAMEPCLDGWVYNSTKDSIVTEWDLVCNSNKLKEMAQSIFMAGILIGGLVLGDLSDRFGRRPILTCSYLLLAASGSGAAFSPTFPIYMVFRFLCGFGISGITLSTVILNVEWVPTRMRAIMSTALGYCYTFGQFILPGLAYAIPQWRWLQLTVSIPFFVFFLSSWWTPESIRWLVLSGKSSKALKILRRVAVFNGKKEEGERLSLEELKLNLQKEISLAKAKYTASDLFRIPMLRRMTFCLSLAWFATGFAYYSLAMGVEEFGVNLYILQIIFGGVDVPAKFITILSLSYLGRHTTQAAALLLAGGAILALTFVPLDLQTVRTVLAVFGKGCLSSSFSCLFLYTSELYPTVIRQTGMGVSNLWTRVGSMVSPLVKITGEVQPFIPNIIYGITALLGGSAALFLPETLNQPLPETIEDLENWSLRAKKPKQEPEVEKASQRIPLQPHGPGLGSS

[2] = molecular target: T2, human OAT1 (Homo sapiens, UniProt Q4U2R8); assay: Inhibition of OAT1-mediated 6-carboxyfluorescein
T2 sequence (Q4U2R8 1-563): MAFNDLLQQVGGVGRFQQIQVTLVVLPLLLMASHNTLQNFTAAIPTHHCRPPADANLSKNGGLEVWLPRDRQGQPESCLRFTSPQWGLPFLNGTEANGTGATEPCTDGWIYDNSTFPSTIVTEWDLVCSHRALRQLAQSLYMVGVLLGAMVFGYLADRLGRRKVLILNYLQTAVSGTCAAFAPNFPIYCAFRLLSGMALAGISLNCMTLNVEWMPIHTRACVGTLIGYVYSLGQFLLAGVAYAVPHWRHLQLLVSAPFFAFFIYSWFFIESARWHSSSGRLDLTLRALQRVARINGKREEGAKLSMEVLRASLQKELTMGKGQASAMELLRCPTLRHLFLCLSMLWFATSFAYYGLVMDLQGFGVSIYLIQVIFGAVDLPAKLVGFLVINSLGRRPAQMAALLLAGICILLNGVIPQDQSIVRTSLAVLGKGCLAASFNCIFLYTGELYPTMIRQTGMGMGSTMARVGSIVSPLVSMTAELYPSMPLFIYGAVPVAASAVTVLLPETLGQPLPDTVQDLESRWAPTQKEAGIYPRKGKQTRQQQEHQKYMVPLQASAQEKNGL

[3] = cited from earlier work
[4] = cited from earlier work; for Cmax / Unbound Fraction: plasma
[5] = molecular target: T1, human OAT3; assay: cell-based
[6] = in vivo
[7] = molecular target: T1, human OAT3
[8] = cited from earlier work; remark: listed apart in the source
[9] = ref https://doi.org/10.1002/cpdd.132
[10] = read-out: Ki (OAT1), HEK293 cells stably transfected with OAT1, 2 μM 6CF, 3 min, 37 °C, […]
[11] = ref https://doi.org/10.1002/j.1552–4604.1993.tb04699.x
[12] = ref https://doi.org/10.1124/jpet.110.165852

Compound	Ki ([1]; read-out: Ki (OAT3))	Ki ([2]; read-out: Ki (OAT1))	Ki [2]	Ki [5]	also measured
CC(=O)c1ccc(CCOc2ccc(CC3SC(=O)NC3=O)cc2)nc1 (centres unmarked) [Keto pioglitazone]	730 nM	12500 nM			
C[C@H](C(=O)O)c1ccc2cc(O)ccc2c1 [(S)-O-desmethyl naproxen]	3440 nM	4700 nM			
NS(=O)(=O)c1ccc(-n2nc(C(F)(F)F)cc2-c2ccc(C(=O)O)cc2)cc1 [Celecoxib carboxylic acid]	8430 nM	262000 nM			acidic pKa [3]: 3.98
C[C@]12CC[C@H](O)CC1=CC[C@@H]1[C@@H]2CC[C@]2(C)C(c3cccnc3)=CC[C@@H]12 [Abiraterone, reference compound]			> 20000 nM	> 20000 nM	Cmax [4, 9]: 0.37 µM; basic pKa [3]: 5.19
C[C@]12CC[C@H](OS(=O)(=O)O)CC1=CC[C@@H]1[C@@H]2CC[C@]2(C)C(c3ccc[n+]([O-])c3)=CC[C@@H]12 [Abiraterone N-oxide sulfate]	1360 nM				Cmax [4, 9]: 9.2 µM; Ki [2, 10]: > 100000 nM; Cmax,u [6]: 0.092 µM
CC(C(=O)O)c1ccc(-c2ccccc2)c(F)c1 (centres unmarked) [Flurbiprofen, reference compound]			1910 nM	1800 nM	
Cc1ccc(NC(=O)c2ccc(CN3CC[N+](C)([O-])CC3)cc2)cc1Nc1nccc(-c2cccnc2)n1 [Imatinib (piperidine)-4-oxide]	64200 nM	> 200000 nM			
CN(CCOc1ccc(CC2SC(=O)NC2=O)cc1)c1ccccn1 (centres unmarked) [Rosiglitazone, reference compound]			4200 nM	590 nM	
COc1ccc2c(c1)c(CC(=O)O)c(C)n2C(=O)c1ccc(Cl)cc1 [Indomethacin]				110 nM	
COc1ccc2cc([C@H](C)C(=O)O[C@@H]3O[C@H](C(=O)O)[C@@H](O)[C@H](O)[C@H]3O)ccc2c1 [(S)-naproxen acyl-β-D-glucuronide]	5430 nM	> 200000 nM			
O=C1NC(=O)C(Cc2ccc(OCCNc3ccccn3)cc2)S1 (centres unmarked) [N-desmethyl rosiglitazone]	1150 nM	33300 nM			
COc1ccc(Cl)cc1C(=O)NCCc1ccc(S(=O)(=O)NC(=O)NC2CCCCC2)cc1 [Glyburide, reference compound]			5700 nM	210 nM	
Cc1ccc(C(=O)c2ccc(CC(=O)O[C@@H]3O[C@H](C(=O)O)[C@@H](O)[C@H](O)[C@H]3O)n2C)cc1 [Tolmetin β-D-glucuronide]	2920 nM	7170 nM			
O=c1n(CCCN2CCN(c3cccc(Cl)c3)CC2)nc2ccccn12 [Trazodone, reference compound]			19900 nM	2940 nM	
CC(=O)CC(c1ccccc1)c1c(O)c2ccccc2oc1=O (centres unmarked) [Warfarin, reference compound]			15800 nM		Ki [1]: 3110 nM
O=c1n(CCCN2CCN(c3ccc(O)c(Cl)c3)CC2)nc2ccccn12 [4-hydroxy-trazodone]	16900 nM	> 200000 nM			
4-Hydroxy flurbiprofen	1390 nM	1600 nM			
CCCN(CCC)S(=O)(=O)c1ccc(C(=O)O[C@@H]2O[C@H](C(=O)O)[C@@H](O)[C@H](O)[C@H]2O)cc1					Ki [7]: 19900 nM
CC1=C(CC(=O)O)c2cc(F)ccc2/C1=C\c1ccc([S+](C)[O-])cc1 (centres unmarked) [Sulindac, reference compound]			56800 nM	1650 nM	Unbound Fraction [4, 11]: 6.78%^a
CCc1ccc(CCOc2ccc(CC3SC(=O)NC3=O)cc2)nc1 (centres unmarked) [Pioglitazone, reference compound]			6300 nM	1020 nM	

Compound	Ki ([1]; read-out: Ki (OAT3))	Ki ([2]; read-out: Ki (OAT1))	Ki [2]	Ki [5]	also measured
Cc1ccc(C(=O)c2ccc(CC(=O)O)n2C)cc1 [Tolmetin, reference compound]			3010 nM	810 nM	
O=C(O)Cc1ccccc1Nc1c(Cl)cc(O)cc1Cl [4-Hydroxy diclofenac]	2030 nM	480 nM			
CC(O)c1ccc(CCOc2ccc(CC3SC(=O)NC3=O)cc2)nc1 (centres unmarked) [Hydroxy pioglitazone]			27600 nM	1370 nM	
CCCCc1nc(Cl)c(C(=O)O)n1Cc1ccc(-c2ccccc2-c2nn[nH]n2)cc1 [Losartan carboxylic acid]			690 nM	100 nM	times more potent in inhibiting OAT3 than parent drug ([1]; metabolite versus losartan): 3.6 times; plasma unbound fraction ([4]; no reference given): lower than 1%; times more potent in inhibiting OAT1 than parent drug ([2]; metabolite versus losartan): 16.5 times
COc1ccc(Cl)cc1C(=O)NCCc1ccc(S(=O)(=O)NC(=O)N[C@H]2CCC[C@@H](O)C2)cc1 (relative stereo) [3-cis-hydroxycyclohexyl glyburide]	810 nM				Ki [2, 10]: 10100 nM
CN(CCOc1ccc(CC2SC(=O)NC2=O)cc1)c1ccc(O[C@@H]2O[C@H](C(=O)O)[C@@H](O)[C@H](O)[C@H]2O)cn1 (stereo partly drawn) [5-Hydroxy Rosiglitazone β-D-Glucuronide]	> 200000 nM	> 200000 nM			
CN(CCOc1ccc(CC2SC(=O)NC2=O)cc1)c1ccc(OS(=O)(=O)O)cn1 (centres unmarked) [5-OH-rosiglitazone sulfate]	1310 nM	33700 nM			
Cc1cnc(NC(=O)C2=C(O)c3ccccc3S(=O)(=O)N2C)s1 [Meloxicam, reference compound]			6880 nM	540 nM	
CC(C(=O)O)c1cccc(C(=O)c2ccccc2)c1 (centres unmarked) [Ketoprofen, reference compound]			1730 nM		Ki [1]: 1610 nM
CC1=C(CC(=O)O)c2cc(F)ccc2/C1=C\c1ccc(S(C)(=O)=O)cc1 [Sulindac sulfone]	600 nM	23000 nM			Cmax [4, 11]: 4.48 µM; Unbound Fraction [4, 12]: 2.1%^b
CC(C)c1nc(N(C)S(C)(=O)=O)nc(-c2ccc(F)cc2)c1/C=C/[C@@H](O)C[C@@H](O)CC(=O)O [rosuvastatin]					renal clearance as share of total plasma clearance [8]: 28%; share of renal clearance thought to result from OAT3-mediated tubular secretion [8]: 90%
Cc1ccc(-c2cc(C(F)(F)F)nn2-c2ccc(S(N)(=O)=O)cc2)cc1 [Celecoxib, reference compound]			> 200000 nM	> 200000 nM	
C[C@]12CC[C@H](OS(=O)(=O)O)CC1=CC[C@@H]1[C@@H]2CC[C@]2(C)C(c3cccnc3)=CC[C@@H]12 [Abiraterone sulfate]	1830 nM	38200 nM			Cmax [4, 9]: 25 µM; Cmax,u [6]: 0.25 µM
Cc1c(CC(=O)O)c2cc(O)ccc2n1C(=O)c1ccc(Cl)cc1 [O-desmethyl indomethacin]	270 nM	1620 nM			
CSc1ccc(/C=C2/C(C)=C(CC(=O)O)c3cc(F)ccc32)cc1 [Sulindac sulfide]			3680 nM	660 nM	Cmax [4, 11]: 22.6 µM; Unbound Fraction [4, 11]: 6.01%; Unbound Fraction [4, 12]: 4.6%
CC(=O)C[C@@H](c1ccccc1)c1c(O)c2ccc(O)cc2oc1=O [(S)-7-hydroxy warfarin]	1930 nM	14500 nM			
CCCCc1nc(Cl)c(CO)n1Cc1ccc(-c2ccccc2-c2nn[nH]n2)cc1 [Losartan, reference compound]			11400 nM	360 nM	Unbound Fraction ([4]; ref Drugbank (https://www.drugbank.ca/drugs/DB00678)): 1.4%^d
CN1C(C(=O)Nc2ncc(C(=O)O)s2)=C(O)c2ccccc2S1(=O)=O [5-Carboxy-meloxicam]	700 nM	19600 nM			
C[C@]12CC[C@@H]3c4ccc(OS(=O)(=O)O)cc4CC[C@H]3[C@@H]1CCC2=O [Estrone sulfate, reference compound]					Ki [7]: 1000 nM
